# Experiments:
# [1] = tested on: slowly-inactivating A-type K^+ channel; test: Voltage clamp, slowly-inactivating A-type K+ currents in Fast Blue-labeled capsaicin-sensitive bladder afferent neurons; assay type: cell-based, rat; details: Compound 1 1.0 × 10^−6 mol/L
# Experimental: (§1) Experiments were performed on adult female Sprague Dawley rats. First and second series of the experiments were performed, respectively, in unidentified DRG neurons and a specific population of DRG neurons innervating the urinary bladder. The population of DRG neurons that innervate the urinary bladder were labeled by retrograde axonal transport of the fluorescent dye, Fast Blue (4% w/v) (Polyloy, Gross Umstadt, Germany), injected into the wall of the bladder in halothane-anesthetized animals 7 days before the dissociation. The dye was injected with a 28 gauge needle at three to six sites on the dorsal surface of the organ (5–6 μL per site, total volume of 20–30 μL). Each injection site was washed with saline to minimize contamination of adjacent organs with the dye.
# Freshly dissociated neurons from DRG were prepared from halothane-anesthetized animals. […]
# Dye-labeled primary afferent neurons that innervate the urinary bladder were identified using an inverted phase-contrast microscope (Nikon, Tokyo, Japan) with fluorescent attachments (UV-1A filter; excitation wavelength, 365 nm). […] All recordings were made with an Axopatch-1D patch-clamp amplifier (Axon Instruments, Foster City, Calif.), and data were acquired and analyzed by PCLAMP software (Axon Instruments).
# In voltage-clamp recordings, outward K^+ currents and inward Na^+ currents were measured. […]
# dd male mice = details: mouse, in vivo, po, 7 day
# Experimental: The test compound was administered orally or intraperitoneally to 3 animals per group of dd male mice (body weight, 20±1 g). Minimum lethal dose (MLD) value was obtained by observing mortality on the 7th day after the administration.
# [2] = tested on: delayed rectifier K^+ channel; test: Voltage clamp, delayed rectifier K+ currents (HP −20 mV) in unidentified DRG neurons; assay type: cell-based, rat; details: for K+ current HP: −20 mV (delayed rectifier), relative value (before drug = 1): unidentified DRG neurons
# Experimental: as §1
# Freshly dissociated neurons from DRG were prepared from halothane-anesthetized animals. L6 and S1 DRG were dissected from animals and then dissociated in a shaking bath for 25 minutes at 35° C. with 5 mL DMEM (Sigma) containing 0.3 mg/mL trypsin (Type 3, Sigma), 1 mg/mL collagenase (Type 1, Sigma), and 0.1 mg/mL deoxyribonuclease (Type 4, Sigma). Trypsin inhibitor (Type 2a, Sigma) was then added thereto to neutralize the activity of trypsin. Individual DRG cell bodies were isolated by trituration and then plated on a poly-L-lysine-coated 35 mm Petri dishes.
# Dye-labeled primary afferent neurons that innervate the urinary bladder were identified using an inverted phase-contrast microscope (Nikon, Tokyo, Japan) with fluorescent attachments (UV-1A filter; excitation wavelength, 365 nm). Gigaohm-seal whole-cell recordings were performed at room temperature (20–22° C.) on each labeled neuron in a culture dish that usually contained three to seven labeled cells among a few hundred unlabeled neurons. The internal solution contained (in mmol/L): KCl 140, CaCl2 1, MgCl2 2, EGTA 11, HEPES 10, Mg-ATP 2, and Tris-GTP 0.4 adjusted to pH 7.4 with KOH. Patch electrodes had resistances of 1–4 M Ω when filled with the internal solution. Neurons were superfused at a flow rate of 1.5 mL/minutes with an external solution containing (in mmol/L): NaCl 150, KCl 5, CaCl2 2.5, MgCl2 1, HEPES 10, and D-glucose 10, adjusted to pH 7.4 with NaOH. All recordings were made with an Axopatch-1D patch-clamp amplifier (Axon Instruments, Foster City, Calif.), and data were acquired and analyzed by PCLAMP software (Axon Instruments).
# In voltage-clamp recordings, outward K^+ currents and inward Na^+ currents were measured. For the isolation of K^+ currents, the external solution was changed to one containing (in mmol/L): choline-Cl 150, KOH 5, CaCl2 0.03, HEPES 10, Mg(OH)2 3, and D-glucose 10, adjusted to pH 7.4 with HCl.
# In first series of experiments using unidentified DRG neurons, outward K^+ currents were evoked by voltage steps to +60 mV, 800 ms long from a holding potentials of −90 mV, this was followed by a 1-second conditioning pre-pulse to −20 mV followed by a second pulse to +60 mV, identical to the first in the sequence. In the second series of experiments using Fast Blue-labeled bladder afferent neurons, slowly-inactivating A-type K^+ currents were isolated by subtraction of outward K^+ currents activated from a holding potential of −40 mV (on the condition of inactivation of the majority of slowly-inactivating A-type K^+ currents) from those activated from a holding potential of −120 mV (on the condition of full activation of slowly-inactivating A-type K^+ currents). A compound was added cumulatively, starting with a lower concentration. Currents were measured at the maximum (peak) and normalized to control (before addition of the compound).
# The currents at a holding potential (HP) of −90 mV are results of the measurement of slowly-inactivating A-type K^+ currents, and the currents at an HP value of −20 mV are results of the measurement of delayed rectifier K^+ currents. […]
structure (smiles),measurement,setting,value
"C[C@](O)(C(=O)Nc1cccc2c1C(=O)c1sccc1CS2(=O)=O)C(F)(F)F [Compound 1, (S)-(+)-N-(5,5-dioxido-10-oxo-4,10-dihydrothieno[3,2-c][1]benzothiepin-9-yl)-3,3,3-trifluoro-2-hydroxy-2-methylpropanamide]","A-type IK (HP: −120 mV) − (HP: −40 mV), normalized to control",[1],1.26 ± 0.03
same,Minimum lethal dose (MLD),dd male mice,"> 1,000 mg/kg"
same,"K+ current HP: −20 mV, relative value (before drug = 1)","[2]; Compound 1 1.0 × 10^−5 mol/L, in the presence of 5 μmol/L verapamil",1.00 ± 0.02
same,"K+ current HP: −20 mV, relative value (before drug = 1)","[2]; Compound 1 1.0 × 10^−5 mol/L, in the presence of 20 mmol/L tetraethylammonium",1.01 ± 0.02
same,"K+ current HP: −20 mV (delayed rectifier), relative value (before drug = 1)",[2]; Compound 1 1.0 × 10^−5 mol/L,0.88 ± 0.07
same,"K+ current HP: −20 mV, relative value (before drug = 1)","[2]; Compound 1 1.0 × 10^−6 mol/L, in the presence of 5 μmol/L verapamil",1.00 ± 0.01
same,"K+ current HP: −20 mV, relative value (before drug = 1)","[2]; Compound 1 1.0 × 10^−6 mol/L, in the presence of 20 mmol/L tetraethylammonium",1.00 ± 0.00
same,"K+ current HP: −20 mV (delayed rectifier), relative value (before drug = 1)",[2]; Compound 1 1.0 × 10^−6 mol/L,1.00 ± 0.02
same,"K+ current HP: −20 mV, relative value (before drug = 1)","[2]; Compound 1 1.0 × 10^−7 mol/L, in the presence of 5 μmol/L verapamil",1.00 ± 0.01
same,"K+ current HP: −20 mV, relative value (before drug = 1)","[2]; Compound 1 1.0 × 10^−7 mol/L, in the presence of 20 mmol/L tetraethylammonium",0.99 ± 0.02
same,"K+ current HP: −20 mV (delayed rectifier), relative value (before drug = 1)",[2]; Compound 1 1.0 × 10^−7 mol/L,1.02 ± 0.01
same,"K+ current HP: −20 mV (delayed rectifier), relative value (before drug = 1)",[2]; Compound 1 1.0 × 10^−8 mol/L,0.98 ± 0.04
same,"K+ current HP: −20 mV (delayed rectifier), relative value (before drug = 1)",[2]; Compound 1 2.5 × 10^−8 mol/L,1.01 ± 0.03
same,"K+ current HP: −20 mV, relative value (before drug = 1)","[2]; Compound 1 5.0 × 10^−4 mol/L, in the presence of 5 μmol/L verapamil",0.83 ± 0.06
same,"K+ current HP: −20 mV, relative value (before drug = 1)","[2]; Compound 1 5.0 × 10^−4 mol/L, in the presence of 20 mmol/L tetraethylammonium",0.25 ± 0.04
same,"K+ current HP: −20 mV, relative value (before drug = 1)","[2]; Compound 1 5.0 × 10^−4 mol/L, in the presence of 60 mmol/L tetraethylammonium",0.54 ± 0.02
same,"K+ current HP: −20 mV, relative value (before drug = 1)","[2]; Compound 1 5.0 × 10^−5 mol/L, in the presence of 5 μmol/L verapamil",0.98 ± 0.01
same,"K+ current HP: −20 mV, relative value (before drug = 1)","[2]; Compound 1 5.0 × 10^−5 mol/L, in the presence of 20 mmol/L tetraethylammonium",0.84 ± 0.06
same,"K+ current HP: −20 mV, relative value (before drug = 1)","[2]; Compound 1 5.0 × 10^−5 mol/L, in the presence of 60 mmol/L tetraethylammonium",0.95 ± 0.03
same,"K+ current HP: −20 mV (delayed rectifier), relative value (before drug = 1)",[2]; Compound 1 5.0 × 10^−5 mol/L,0.81 ± 0.08
same,"K+ current HP: −20 mV, relative value (before drug = 1)","[2]; Compound 1 5.0 × 10^−6 mol/L, in the presence of 5 μmol/L verapamil",1.01 ± 0.01
same,"K+ current HP: −20 mV, relative value (before drug = 1)","[2]; Compound 1 5.0 × 10^−6 mol/L, in the presence of 20 mmol/L tetraethylammonium",0.98 ± 0.01
same,"K+ current HP: −20 mV, relative value (before drug = 1)","[2]; Compound 1 5.0 × 10^−6 mol/L, in the presence of 60 mmol/L tetraethylammonium",0.97 ± 0.02
same,"K+ current HP: −20 mV, relative value (before drug = 1)","[2]; Compound 1 5.0 × 10^−7 mol/L, in the presence of 5 μmol/L verapamil",1.00 ± 0.01
same,"K+ current HP: −20 mV, relative value (before drug = 1)","[2]; Compound 1 5.0 × 10^−7 mol/L, in the presence of 20 mmol/L tetraethylammonium",1.01 ± 0.01
same,"K+ current HP: −20 mV, relative value (before drug = 1)","[2]; Compound 1 5.0 × 10^−7 mol/L, in the presence of 60 mmol/L tetraethylammonium",0.97 ± 0.03
same,"K+ current HP: −20 mV (delayed rectifier), relative value (before drug = 1)",[2]; Compound 1 5.0 × 10^−7 mol/L,1.01 ± 0.02
same,"K+ current HP: −20 mV, relative value (before drug = 1)","[2]; Compound 1 5.0 × 10^−8 mol/L, in the presence of 5 μmol/L verapamil",1.00 ± 0.00
same,"K+ current HP: −20 mV, relative value (before drug = 1)","[2]; Compound 1 5.0 × 10^−8 mol/L, in the presence of 20 mmol/L tetraethylammonium",0.99 ± 0.01
same,"K+ current HP: −20 mV, relative value (before drug = 1)","[2]; Compound 1 5.0 × 10^−8 mol/L, in the presence of 60 mmol/L tetraethylammonium",1.00 ± 0.01
same,"K+ current HP: −20 mV (delayed rectifier), relative value (before drug = 1)",[2]; Compound 1 5.0 × 10^−8 mol/L,1.00 ± 0.01
same,"K+ current HP: −20 mV, relative value (before drug = 1)","[2]; Compound 1 5.0 × 10^−9 mol/L, in the presence of 20 mmol/L tetraethylammonium",0.99 ± 0.00
same,"K+ current HP: −20 mV (delayed rectifier), relative value (before drug = 1)",[2]; Compound 1 5.0 × 10^−9 mol/L,0.98 ± 0.02

# Reference: patent publication US7122173B2, “Agent for the treatment of bladder irritative symptoms accompanied by benign prostatic hyperplasia” (Kyowa Hakko Kogyo Co., Ltd., priority 2001, dated 2006)
